We go through 8 compounds from patent US11866430B2, “Naphthyridinone compounds useful as T cell activators” (priority 2018, dated 2024).

For assay [1], the target named is human DGKα (Homo sapiens (Human), UniProt P23743). Put plainly: biochemical. To be noted: detergent/lipid micelle substrate; read-out: DGKα IC50. The method, boiled down:
(§1)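 Enzymes were baculovirus/Sf9 full-length human DGKα or DGKζ with His tag. The substrate was PS/DAG in octyl glucoside micelles, in MOPS pH 7.5 buffer with NaCl, MgCl2, CaCl2 and DTT.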

The target of assay [2] is human DGKζ (Homo sapiens (Human), UniProt Q13574). Put plainly: DGKζ assay (detergent/lipid micelle substrate). As to conditions: detergent/lipid micelle substrate; read-out: DGKζ IC50. In kind it is biochemical. Put shortly: as §1
Assay [3] relates to pre-activated CD4 T cells and Raji cells. In words: Raji CD4 T Cell IL2 Assay. To be noted: Homo sapiens, Raji. In kind it is cell-based.

SMILES strings stand for the structures. Some results are limits rather than exact numbers.

Chain of human DGKζ (Q13574 other isoform, or with tags, fused parts or gaps): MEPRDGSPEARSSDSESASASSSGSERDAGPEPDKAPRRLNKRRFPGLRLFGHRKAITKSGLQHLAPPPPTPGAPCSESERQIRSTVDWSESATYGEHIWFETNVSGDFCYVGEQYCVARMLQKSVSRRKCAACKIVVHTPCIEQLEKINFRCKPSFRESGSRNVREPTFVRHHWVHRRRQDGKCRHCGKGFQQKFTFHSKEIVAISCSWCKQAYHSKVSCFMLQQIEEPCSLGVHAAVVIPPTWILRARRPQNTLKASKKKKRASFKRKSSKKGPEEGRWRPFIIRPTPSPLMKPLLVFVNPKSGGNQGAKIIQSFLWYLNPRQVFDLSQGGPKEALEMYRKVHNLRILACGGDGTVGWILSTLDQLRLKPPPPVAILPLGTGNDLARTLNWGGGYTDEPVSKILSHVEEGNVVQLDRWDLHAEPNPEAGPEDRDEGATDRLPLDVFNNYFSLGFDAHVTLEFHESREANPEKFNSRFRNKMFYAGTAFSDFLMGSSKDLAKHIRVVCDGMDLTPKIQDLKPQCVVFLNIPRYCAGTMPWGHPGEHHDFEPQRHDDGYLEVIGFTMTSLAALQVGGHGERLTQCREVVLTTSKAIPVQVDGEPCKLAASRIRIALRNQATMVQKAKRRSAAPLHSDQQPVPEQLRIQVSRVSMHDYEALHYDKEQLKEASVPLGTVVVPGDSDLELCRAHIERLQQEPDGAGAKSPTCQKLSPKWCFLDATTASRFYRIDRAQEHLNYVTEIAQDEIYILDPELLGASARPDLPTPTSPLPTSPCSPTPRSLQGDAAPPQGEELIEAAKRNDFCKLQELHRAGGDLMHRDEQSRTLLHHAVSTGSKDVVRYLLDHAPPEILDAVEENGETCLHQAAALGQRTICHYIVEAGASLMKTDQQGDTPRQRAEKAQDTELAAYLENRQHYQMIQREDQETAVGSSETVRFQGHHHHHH
Chain of human DGKα (P23743 other isoform, or with tags, fused parts or gaps): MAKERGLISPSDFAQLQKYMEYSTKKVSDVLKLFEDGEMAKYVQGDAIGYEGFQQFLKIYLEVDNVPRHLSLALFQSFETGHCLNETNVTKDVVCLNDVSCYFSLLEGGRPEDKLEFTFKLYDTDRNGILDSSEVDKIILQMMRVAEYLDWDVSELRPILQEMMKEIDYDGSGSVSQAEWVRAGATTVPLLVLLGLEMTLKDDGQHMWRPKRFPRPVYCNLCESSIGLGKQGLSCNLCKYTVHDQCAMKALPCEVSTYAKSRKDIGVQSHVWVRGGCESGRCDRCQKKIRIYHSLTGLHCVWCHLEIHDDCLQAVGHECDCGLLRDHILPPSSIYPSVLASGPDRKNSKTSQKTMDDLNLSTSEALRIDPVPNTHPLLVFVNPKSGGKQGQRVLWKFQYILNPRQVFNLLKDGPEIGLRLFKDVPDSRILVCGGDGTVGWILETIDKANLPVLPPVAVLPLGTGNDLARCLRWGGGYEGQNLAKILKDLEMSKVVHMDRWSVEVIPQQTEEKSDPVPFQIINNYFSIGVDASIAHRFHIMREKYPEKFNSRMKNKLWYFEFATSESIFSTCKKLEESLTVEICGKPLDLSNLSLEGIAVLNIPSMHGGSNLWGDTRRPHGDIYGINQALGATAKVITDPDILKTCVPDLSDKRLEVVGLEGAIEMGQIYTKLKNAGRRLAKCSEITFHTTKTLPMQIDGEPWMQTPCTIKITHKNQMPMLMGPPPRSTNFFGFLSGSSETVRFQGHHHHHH

For the compound `COc1cccc(CN2CCN(c3c(C#N)c(=O)n(C)c4ccc(Br)nc34)CC2)c1O` [Example 368, 6-bromo-4-{4-[(2-hydroxy-3-methoxyphenyl)methyl]piperazin-1-yl}-1-methyl-2-oxo-1,2-dihydro-1,5-naphthyridine-3-carbonitrile], the results for the half-inhibitory concentration (IC50) in assay [1], in assay [2] and in assay [3] were 0.4 µM, over 240 µM and over 100 µM, respectively.
Take `Cn1c(=O)c(C#N)c(N2CCN(Cc3cc(OC(F)(F)F)ccc3O)CC2)c2nc(Cl)ccc21` [Example 369, 6-chloro-4-(4-{[2-hydroxy-5-(trifluoromethoxy)phenyl]methyl}piperazin-1-yl)-1-methyl-2-oxo-1,2-dihydro-1,5-naphthyridine-3-carbonitrile]: the 50% inhibitory concentration (IC50) in assay [1] is 0.16 µM; in assay [2] it was over 240 µM; in assay [3] it was over 100 µM.
As to `Cn1c(=O)c(C#N)c(N2CCN(Cc3cc(Cl)ccc3O)CC2)c2nc(Cl)ccc21` [Example 370, 6-chloro-4-{4-[(5-chloro-2-hydroxyphenyl)methyl]piperazin-1-yl}-1-methyl-2-oxo-1,2-dihydro-1,5-naphthyridine-3-carbonitrile], the values for the IC50 in assay [1], in assay [2] and in assay [3] were 0.17 µM, over 240 µM and over 100 µM, respectively.
For the compound `COc1cccc(CN2CCN(c3c(C#N)c(=O)n(C)c4ccc(Cl)nc34)CC2)c1O` [Example 371, 6-chloro-4-{4-[(2-hydroxy-3-methoxyphenyl)methyl]piperazin-1-yl}-1-methyl-2-oxo-1,2-dihydro-1,5-naphthyridine-3-carbonitrile], the half-maximal inhibitory concentration (IC50) is 0.23 µM in assay [1], 170 µM in assay [2] and over 100 µM in assay [3].
On to `Cn1c(=O)c(C#N)c(N2CCN(Cc3ccc(C(F)(F)F)c(F)c3)CC2)c2nc(Cl)ccc21` [Example 375, 6-chloro-4-(4-{[3-fluoro-4-(trifluoromethyl)phenyl]methyl}piperazin-1-yl)-1-methyl-2-oxo-1,2-dihydro-1,5-naphthylidine-3-carbonitrile], for which the IC50 in assay [1] was 1.6 µM; in assay [2], over 240 µM; in assay [3], over 100 µM.
As to `Cn1c(=O)c(C#N)c(N2CCN(Cc3ccc(Cl)cc3)CC2)c2nc(Cl)ccc21` [Example 417, 6-chloro-4-{4-[(4-chlorophenyl)methyl]piperazin-1-yl}-1-methyl-2-oxo-1,2-dihydro-1,5-naphthyridine-3-carbonitrile], the half-maximal inhibitory concentration (IC50) is 0.25 µM in assay [1], over 240 µM in assay [2] and 0.15 µM in assay [3].
On to `Cn1c(=O)c(C#N)c(N2CCN(C3(c4ccc(F)cc4)CC3)CC2)c2nc(Cl)ccc21` [Example 421, 6-chloro-4-{4-[1-(4-fluorophenyl)cyclopropyl]piperazin-1-yl}-1-methyl-2-oxo-1,2-dihydro-1,5-naphthyridine-3-carbonitrile], for which the half-maximal inhibitory concentration (IC50) in assay [1] was 69 µM; in assay [2], over 240 µM; in assay [3] it was 2.8 µM.
In the case of `Cc1ccc2c(n1)c(N1CCN(C(c3ccc(F)cc3)c3ccc(F)cc3)CC1)cc(=O)n2C` [Example 427, 4-{4-[bis(4-fluorophenyl)methyl]piperazin-1-yl}-1,6-dimethyl-1,2-dihydro-1,5-naphthyridin-2-one], the 50% inhibitory concentration (IC50) in assay [1] is 150 µM; in assay [2], over 240 µM; in assay [3], 2.4 µM.

The IC50 is the midpoint of a concentration-inhibition curve.
